{"source": "paper PMC7668422", "about": "(Anesthesia and analgesia, 2020)", "key": {"KOR": {"system": "KOR", "conditions": "no reference given; cited from earlier work"}, "[1]": {"conditions": "cited from earlier work"}, "μ-opioid receptor (MOR) [2]": {"biological_target": "T1, μ-opioid receptor (MOR) (Homo sapiens, UniProt P35372)", "T1 sequence (P35372 whole entry, species assumed)": "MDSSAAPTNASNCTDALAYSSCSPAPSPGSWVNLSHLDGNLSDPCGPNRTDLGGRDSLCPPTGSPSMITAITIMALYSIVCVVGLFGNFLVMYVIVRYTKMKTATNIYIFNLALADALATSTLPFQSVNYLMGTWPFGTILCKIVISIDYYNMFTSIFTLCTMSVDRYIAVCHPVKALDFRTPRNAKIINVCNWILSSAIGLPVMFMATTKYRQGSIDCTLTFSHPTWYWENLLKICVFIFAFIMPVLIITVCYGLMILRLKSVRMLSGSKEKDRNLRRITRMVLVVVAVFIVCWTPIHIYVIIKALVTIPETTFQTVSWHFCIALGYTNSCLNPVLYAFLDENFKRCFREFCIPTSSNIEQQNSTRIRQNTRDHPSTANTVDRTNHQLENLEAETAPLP", "conditions": "cited from earlier work"}, "[3]": {"biological_target": "mKOR-tdTomato fusion protein in Neuro2A cells (Mus musculus, UniProt P33534)", "sequence (P33534 whole entry, the tested form may be a part)": "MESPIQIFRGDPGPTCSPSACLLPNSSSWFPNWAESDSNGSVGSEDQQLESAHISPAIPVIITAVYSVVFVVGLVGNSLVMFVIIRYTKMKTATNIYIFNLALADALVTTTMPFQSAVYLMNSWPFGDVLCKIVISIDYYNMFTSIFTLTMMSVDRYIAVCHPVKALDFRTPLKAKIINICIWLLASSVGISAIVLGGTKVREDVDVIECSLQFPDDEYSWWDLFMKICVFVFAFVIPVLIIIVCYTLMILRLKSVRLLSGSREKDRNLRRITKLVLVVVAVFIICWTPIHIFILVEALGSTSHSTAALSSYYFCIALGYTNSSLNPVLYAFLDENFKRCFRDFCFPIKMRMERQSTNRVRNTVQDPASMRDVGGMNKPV", "assay": "KOR internalization in N2A-mKOR-tdT cells, fluorescence microscopy", "type": "cell-based"}, "μ-opioid receptor (MOR) [4]": {"biological_target": "T1, μ-opioid receptor (MOR)", "assay": "Affinity for the μ-opioid receptor", "type": "binding", "conditions": "mean ± SD; no method described"}, "κ-opioid receptor (KOR)": {"biological_target": "κ-opioid receptor (KOR) (Homo sapiens, UniProt P41145)", "sequence (P41145 whole entry)": "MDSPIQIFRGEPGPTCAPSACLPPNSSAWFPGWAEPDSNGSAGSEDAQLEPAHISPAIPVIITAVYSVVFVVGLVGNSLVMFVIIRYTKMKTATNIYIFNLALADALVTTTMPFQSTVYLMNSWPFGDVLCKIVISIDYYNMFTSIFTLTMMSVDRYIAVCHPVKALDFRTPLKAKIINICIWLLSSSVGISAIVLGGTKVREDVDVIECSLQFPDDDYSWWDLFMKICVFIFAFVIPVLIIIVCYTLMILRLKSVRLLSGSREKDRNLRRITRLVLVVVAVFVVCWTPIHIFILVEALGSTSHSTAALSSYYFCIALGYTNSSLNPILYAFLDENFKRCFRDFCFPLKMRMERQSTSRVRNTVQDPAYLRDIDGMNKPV", "assay": "biochemical", "type": "binding"}, "human KOR [5]": {"biological_target": "T2, human KOR (Homo sapiens, UniProt P41145)", "assay": "biochemical", "type": "biochemical"}, "human KOR [6]": {"biological_target": "T2, human KOR", "type": "cell-based"}}, "data": [{"smiles": "CC(C)[C@@H](CN1CC[C@@](C)(c2cccc(O)c2)[C@@H](C)C1)NC(=O)[C@H]1Cc2ccc(O)cc2CN1", "note": "[JDTic]", "values": [{"measurement": "agonistic activity at KOR", "setting": "KOR", "result": "no agonistic activity"}]}, {"smiles": "Oc1ccc2c(c1)[C@@]13CCCC[C@@]1(O)[C@@H](C2)N(CC1CCC1)CC3", "note": "[butorphanol]", "values": [{"measurement": "analgesic potency relative to morphine", "setting": "[1]; clinical trial for perioperative pain management", "result": "~6", "unit": "times"}, {"measurement": "potency relative to morphine", "setting": "[1]; discussion statement, no reference given", "result": "5–7 fold"}, {"measurement": "agonist character at MOR", "setting": "μ-opioid receptor (MOR) [2]", "result": "partial μ-opioid receptor (MOR) agonist"}, {"measurement": "KOR internalization", "setting": "[3]; butorphanol 0.1 μM to 8 μM, from 5 min", "result": "KOR internalization was observed"}, {"measurement": "affinity for the μ-opioid receptor", "setting": "μ-opioid receptor (MOR) [4]", "result": "2.4 ± 1.2", "unit": "nM"}, {"measurement": "Kd", "setting": "κ-opioid receptor (KOR)", "result": "0.1 ± 0.02", "unit": "nM"}, {"measurement": "Ki", "setting": "κ-opioid receptor (KOR)", "result": "0.1 ± 0.02", "unit": "nM"}, {"measurement": "affinity for KOR relative to μ-opioid receptor", "setting": "κ-opioid receptor (KOR)", "result": "about twenty-fold"}, {"measurement": "EC50", "setting": "human KOR [5]", "result": 2.8, "unit": "nM"}, {"measurement": "agonist character, G protein activation pathway", "setting": "human KOR [5]", "result": "partial, high affinity agonist"}, {"measurement": "maximal G protein activation relative to salvinorin A", "setting": "human KOR [5]", "result": "about 50%"}, {"measurement": "agonist character, β-arrestin recruitment pathway", "setting": "human KOR [6]", "result": "full agonist"}]}, {"smiles": "C[C@@]12CCCCC[C@@H](Cc3ccc(O)cc31)[C@@H]2N", "note": "[dezocine]", "values": [{"measurement": "effect on butorphanol-induced KOR internalization", "setting": "[3]; 2 μM dezocine co-incubated with 0.4 μM butorphanol for 30 min", "result": "abolish the KOR internalization"}, {"measurement": "Ki", "setting": "κ-opioid receptor (KOR)", "result": "56 ± 2", "unit": "nM"}]}, {"smiles": "COC(=O)[C@@H]1C[C@H](OC(C)=O)C(=O)[C@H]2[C@@]1(C)CC[C@H]1C(=O)O[C@H](c3ccoc3)C[C@]21C", "note": "[salvinorin A]", "values": [{"measurement": "agonist character, G protein activation pathway", "setting": "human KOR [5]", "result": "full agonist"}, {"measurement": "concentration giving full activation of the receptor", "setting": "human KOR [5]", "result": "above 1 μM"}]}]}
